# Laboratory results as given in ChEMBL document CHEMBL1201862, “PubChem BioAssay data set” (2004).
#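 Briefly, cells in 96-well plates were exposed to five compound concentrations for 48 h, and endpoints were estimated by linear interpolation. Abbreviation: GI50, concentration required for 50% inhibition of growth.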 Activity calls are given as the source filed them. Rule as the data show it: active = GI50 up to about 1.1 µM and inactive = higher.
# Experiments:
# Assay in all cases: DTP human tumour cell line panel, 48 h
# [1] = test system: 786-0
# [2] = test system: A498
# [3] = test system: A549
# [4] = test system: ACHN
# [5] = test system: BT-549
# [6] = test system: CAKI-1
# [7] = test system: CCRF-CEM
# [8] = test system: COLO 205
# [9] = test system: DU-145
# [10] = test system: EKVX
# [11] = test system: HCC 2998
# [12] = test system: HCT-116
# [13] = test system: HCT-15
# [14] = test system: HL-60
# [15] = test system: HOP-62
# [16] = test system: HOP-92
# [17] = test system: HT-29
# [18] = test system: Hs-578T
# [19] = test system: IGROV-1
# [20] = test system: K562
# [21] = test system: KM12
# [22] = test system: LOX IMVI
# [23] = test system: M14
# [24] = test system: MCF7
# [25] = test system: MDA-MB-231
# [26] = test system: MDA-MB-435
# [27] = test system: MDA-N
# [28] = test system: MOLT-4
# [29] = test system: Malme-3M
# [30] = test system: NCI-H226
# [31] = test system: NCI-H23
# [32] = test system: NCI-H460
# [33] = test system: NCI-H522
# [34] = test system: NCI/ADR-RES
# [35] = test system: OVCAR-3
# [36] = test system: OVCAR-4
# [37] = test system: OVCAR-5
# [38] = test system: OVCAR-8
# [39] = test system: PC-3
# [40] = test system: RPMI-8226
# [41] = test system: RXF 393
# [42] = test system: SF-268
# [43] = test system: SF-295
# [44] = test system: SF-539
# [45] = test system: SK-MEL-28
# [46] = test system: SK-MEL-2
# [47] = test system: SK-MEL-5
# [48] = test system: SK-OV-3
# [49] = test system: SN12C
# [50] = test system: SNB-19
# [51] = test system: SNB-75
# [52] = test system: SR
# [53] = test system: SW-620
# [54] = test system: T47D
# [55] = test system: TK-10
# [56] = test system: U-251
# [57] = test system: UACC-257
# [58] = test system: UACC-62
# [59] = test system: UO-31
structure (smiles),measurement,setting,value
COC(=O)/C=C1\C(=O)N(C(C)=O)c2ccccc21,GI50,[1],4.9 µM (inactive)
same,GI50,[2],0.0371 µM (active)
same,GI50,[3],7.18 µM (inactive)
same,GI50,[4],6.82 µM (inactive)
same,GI50,[5],3.47 µM (inactive)
same,GI50,[6],0.0671 µM (active)
same,GI50,[7],2.97 µM (inactive)
same,GI50,[8],12.2 µM (inactive)
same,GI50,[9],9.86 µM (inactive)
same,GI50,[10],12.3 µM (inactive)
same,GI50,[11],15.4 µM (inactive)
same,GI50,[12],8.28 µM (inactive)
same,GI50,[13],6.19 µM
same,GI50,[14],2.03 µM (inactive)
same,GI50,[15],12.9 µM (inactive)
same,GI50,[16],2.04 µM (inactive)
same,GI50,[17],5.28 µM (inactive)
same,GI50,[18],4.17 µM (inactive)
same,GI50,[19],7.87 µM (inactive)
same,GI50,[20],5.61 µM (inactive)
same,GI50,[21],12.7 µM (inactive)
same,GI50,[22],3.91 µM (inactive)
same,GI50,[23],13.2 µM (inactive)
same,GI50,[24],3.64 µM (inactive)
same,GI50,[25],7.6 µM (inactive)
same,GI50,[26],11.3 µM (inactive)
same,GI50,[27],7.85 µM (inactive)
same,GI50,[28],5.78 µM (inactive)
same,GI50,[29],13.5 µM (inactive)
same,GI50,[30],12.4 µM (inactive)
same,GI50,[31],14.6 µM (inactive)
same,GI50,[32],10.5 µM (inactive)
same,GI50,[33],3.35 µM (inactive)
same,GI50,[34],13.9 µM (inactive)
same,GI50,[35],7.67 µM (inactive)
same,GI50,[36],5.25 µM (inactive)
same,GI50,[37],22.1 µM (inactive)
same,GI50,[38],17.4 µM (inactive)
same,GI50,[39],13.8 µM (inactive)
same,GI50,[40],11.9 µM (inactive)
same,GI50,[41],6.04 µM (inactive)
same,GI50,[42],16.5 µM (inactive)
same,GI50,[43],17 µM (inactive)
same,GI50,[44],4.79 µM (inactive)
same,GI50,[45],12.3 µM (inactive)
same,GI50,[46],16.9 µM (inactive)
same,GI50,[47],8.73 µM (inactive)
same,GI50,[48],14.8 µM (inactive)
same,GI50,[49],6.22 µM (inactive)
same,GI50,[50],18 µM (inactive)
same,GI50,[51],12.5 µM (inactive)
same,GI50,[52],2.52 µM (inactive)
same,GI50,[53],13.7 µM (inactive)
same,GI50,[54],8.39 µM (inactive)
same,GI50,[55],7.14 µM (inactive)
same,GI50,[56],12.8 µM (inactive)
same,GI50,[57],7.38 µM (inactive)
same,GI50,[58],4.27 µM (inactive)
same,GI50,[59],12.9 µM (inactive)
C=CCn1c(-c2ccc(Cl)cc2Cl)cs/c1=N\c1c(C)n(C)n(-c2ccccc2)c1=O,GI50,[1],13.1 µM (inactive)
same,GI50,[2],12.4 µM (inactive)
same,GI50,[3],9.44 µM (inactive)
same,GI50,[4],10 µM (inactive)
same,GI50,[5],12.9 µM (inactive)
same,GI50,[6],14.4 µM (inactive)
same,GI50,[7],6.92 µM (inactive)
same,GI50,[8],12.3 µM (inactive)
same,GI50,[9],13.2 µM (inactive)
same,GI50,[10],3.54 µM (inactive)
same,GI50,[11],15.3 µM (inactive)
same,GI50,[12],7.24 µM (inactive)
same,GI50,[13],13.7 µM
same,GI50,[14],6.11 µM (inactive)
same,GI50,[15],15.2 µM (inactive)
same,GI50,[16],17.9 µM (inactive)
same,GI50,[17],10.1 µM (inactive)
same,GI50,[18],16.1 µM (inactive)
same,GI50,[19],17 µM (inactive)
same,GI50,[20],2.51 µM (inactive)
same,GI50,[21],13.5 µM (inactive)
same,GI50,[22],9.53 µM (inactive)
same,GI50,[23],11.3 µM (inactive)
same,GI50,[24],9.14 µM (inactive)
same,GI50,[25],13.8 µM (inactive)
same,GI50,[26],10.9 µM (inactive)
same,GI50,[27],8.55 µM (inactive)
same,GI50,[28],4.32 µM (inactive)
same,GI50,[29],15.9 µM (inactive)
same,GI50,[30],15.7 µM (inactive)
same,GI50,[31],9.82 µM (inactive)
same,GI50,[32],12.9 µM (inactive)
same,GI50,[33],12.2 µM (inactive)
same,GI50,[34],6.71 µM (inactive)
same,GI50,[35],10.7 µM (inactive)
same,GI50,[36],8.11 µM (inactive)
same,GI50,[37],16.4 µM (inactive)
same,GI50,[38],5.81 µM (inactive)
same,GI50,[39],5.53 µM (inactive)
same,GI50,[40],7.19 µM (inactive)
same,GI50,[41],14.5 µM (inactive)
same,GI50,[42],15.7 µM (inactive)
same,GI50,[43],6.9 µM (inactive)
same,GI50,[44],14.8 µM (inactive)
same,GI50,[45],13 µM (inactive)
same,GI50,[46],14.7 µM (inactive)
same,GI50,[47],3.04 µM (inactive)
same,GI50,[48],5.04 µM (inactive)
same,GI50,[49],13.4 µM (inactive)
same,GI50,[50],11.1 µM (inactive)
same,GI50,[51],8.47 µM (inactive)
same,GI50,[52],5.36 µM (inactive)
same,GI50,[53],15.8 µM (inactive)
same,GI50,[54],3.12 µM (inactive)
same,GI50,[55],12.3 µM (inactive)
same,GI50,[56],12.5 µM (inactive)
same,GI50,[57],7.05 µM (inactive)
same,GI50,[58],10.4 µM (inactive)
same,GI50,[59],11.5 µM (inactive)
O=C(OCC1OC(n2nc(Cn3nnc(-c4cccnc4)n3)n(-c3cccc4ccccc34)c2=S)C(OC(=O)c2ccccc2)C1OC(=O)c1ccccc1)c1ccccc1 (configuration not stated),GI50,[1],> 100 µM (inactive)
same,GI50,[2],> 100 µM (inactive)
same,GI50,[3],> 100 µM (inactive)
same,GI50,[4],> 100 µM (inactive)
same,GI50,[5],> 100 µM (inactive)
same,GI50,[6],> 100 µM (inactive)
same,GI50,[7],> 100 µM (inactive)
same,GI50,[8],> 100 µM (inactive)
same,GI50,[9],> 100 µM (inactive)
same,GI50,[10],> 100 µM (inactive)
same,GI50,[11],> 100 µM (inactive)
same,GI50,[12],> 100 µM (inactive)
same,GI50,[13],> 100 µM
same,GI50,[14],> 100 µM (inactive)
same,GI50,[15],> 100 µM (inactive)
same,GI50,[16],> 100 µM (inactive)
same,GI50,[17],> 100 µM (inactive)
same,GI50,[18],> 100 µM (inactive)
same,GI50,[19],> 100 µM (inactive)
same,GI50,[20],> 100 µM (inactive)
same,GI50,[21],> 100 µM (inactive)
same,GI50,[22],> 100 µM (inactive)
same,GI50,[23],35.3 µM (inactive)
same,GI50,[24],> 100 µM (inactive)
same,GI50,[25],53.8 µM (inactive)
same,GI50,[26],> 100 µM (inactive)
same,GI50,[27],> 100 µM (inactive)
same,GI50,[28],> 100 µM (inactive)
same,GI50,[29],> 100 µM (inactive)
same,GI50,[30],> 100 µM (inactive)
same,GI50,[31],> 100 µM (inactive)
same,GI50,[32],> 100 µM (inactive)
same,GI50,[33],> 100 µM (inactive)
same,GI50,[34],> 100 µM (inactive)
same,GI50,[35],> 100 µM (inactive)
same,GI50,[36],> 100 µM (inactive)
same,GI50,[37],65.9 µM (inactive)
same,GI50,[38],> 100 µM (inactive)
same,GI50,[39],> 100 µM (inactive)
same,GI50,[40],> 100 µM (inactive)
same,GI50,[41],> 100 µM (inactive)
same,GI50,[42],> 100 µM (inactive)
same,GI50,[43],> 100 µM (inactive)
same,GI50,[44],> 100 µM (inactive)
same,GI50,[45],> 100 µM (inactive)
same,GI50,[46],> 100 µM (inactive)
same,GI50,[47],> 100 µM (inactive)
same,GI50,[48],> 100 µM (inactive)
same,GI50,[49],> 100 µM (inactive)
same,GI50,[50],> 100 µM (inactive)
same,GI50,[51],2.55 µM (inactive)
same,GI50,[52],> 100 µM (inactive)
same,GI50,[53],> 100 µM (inactive)
same,GI50,[54],> 100 µM (inactive)
same,GI50,[55],> 100 µM (inactive)
same,GI50,[56],> 100 µM (inactive)
same,GI50,[57],> 100 µM (inactive)
same,GI50,[58],> 100 µM (inactive)
same,GI50,[59],> 100 µM (inactive)
